The values below come from patent publication US20230101743A1, “SUBSTITUTED TRIAZINE COMPOUNDS AND USES THEREOF” (MUSC FOUNDATION FOR RESEARCH DEVELOPMENT, priority 2020, published 2023).

Data set [1] in a line: Solubilities in water and 1 x PBS buffer (UV-vis). Format: physicochemical. The following applies: for Solubility in 1.0 ml PBS buffer: 1 × PBS buffer; for Solubility in 1.0 ml PBS buffer / Solubility in 1.0 ml water: 25° C.; for solubility comparison: both water or 1 x PBS buffer. As to the method: The molar extinction co-efficients of exemplary cholesterol lowering compounds were measured in 1 x PBS buffer. The compounds were first dissolved in dimethyl sulfoxide. Solutions with a 0.5 mg/ml concentration were then prepared in DMSO. These solutions were diluted further with 1 x PBS by 100-fold, resulting in solutions with a 5 ug/ml concentration. The resulted diluted solutions were then measured and scanned using a UV-vis spectrophotometer for ultra-violet absorbances between 240 nm to 400 nm, using a UV 96-well microplate. The maximum UV absorbances and corresponding wavelengths were recorded (Table 1). The absorbance values were subtracted by that of a blank, 1 x PBS buffer containing […]. The volume of the solutions for UV measurements was 300 ul and the depth of the solutions was 0.7 cm. The molar extinction co-efficients were then calculated based on formula
The solubilities of the exemplary cholesterol lowering compounds were measured in water and 1 x PBS buffer. The compounds were first stirred with water and 1 x PBS buffer individually at room temperature for 1 h. The suspensions were then centrifuged for 2 min. The top clear solutions were filtered through filter paper, resulting in mother liquids, which were centrifuged again and diluted with 1 x PBS buffer for 10-fold for the solubilities in water and 100-fold the solubilities in 1 x PBS buffer. The resulted solutions were measured using a UV-vis spectrophotometer for UV absorbances with the maximum absorbances. The values were subtracted by that of a blank, 1 x PBS buffer. The corrected absorbances were then used to calculate the corresponding concentrations using the formula (1) and extinction coefficients (Table 1) shown above. The individual concentrations were then used to calculate the solubilities in 1.0 mL of water and 1 x PBS buffer.
The compounds were dissolved in DMSO to either 50 mg/ml, 10 mg/ml or 5 mg/ml solutions, which were diluted to 0.5 mg/ml with DMSO. These solutions were then diluted to 5 ug/ml with 1 x PBS buffer. The resulted solutions were then measured in a UV-vis spectrophotometer for UV scanning from 240 nm to 400 nm at 25° C. The absorbance values were subtracted by that of a blank, 1 x PBS buffer containing DMSO. The total volume of the solutions was 300 uL and the path length for each well was 0.7 cm in a UV 96-well plate. The extinction coefficients of the compounds were then calculated based on molar concentrations and the corrected UV absorbances at the maximum absorption (Table 1).
The mixtures wer stirred for 1 h at room temperature, transferred to 1.5 mL Eppendorf tubes, and centrifuged for 2 min. The clear solutions were filtered through filter papers, affording clear solutions, which were centrifuged again for 2 min. The top clear solutions were diluted by 1 x PBS buffer by 10-fold for the solubilities in water and 100-fold for the solubilities in 1 x PBS buffer. The new clear solutions were then measured individually using a UV-vis spectrophotometer and a UV 96-well microplate. The absorbance values were subtracted by that of a blank, 1 x PBS buffer. Concentrations and solubilities of the compounds were then calculated using their extinct coefficients and the corrected UV absorbances at the maximum absorptions (Table 1).

A further data set has as its system Hepatic neutral lipid. Briefly: Neutral lipid staining (BODIPY 493/503) in iPSC-derived hepatocytes. Format: cell-based, human. The following applies: 72 hours; DL-1 2 μg/mL, CP-346086 20 nM. The protocol:
H. Human iPSC derived hepatocytes were treated with DL-1 (2 μg/mL) and MTTP inhibitor CP-346086 (20 nM) for 72 hours. […] (A) Hepatic neutral lipid was determined by staining with 2 μM of BODIPYTM 493/503 for 15 mins and fixed with 4% PFA for microscopy. Nuclei were stained blue by DAPI. Scale bar=100 μm. […] Data are shown as mean±SEM of ten replicates (n=10); ***p<0.001.
K3 iPSC-derived hepatocytes (Day 20) were treated with or without 2 μg/mL of DL-1 or 20 nM of CP-346086 (Sigma) for 72 hours with daily medium change. At the time-point of interest, cells were treated with 2 μM of BODIPY® 493/503 staining solution (ThermoFisher) and 5 μg/mL of Hoechst 33342 (ThermoFisher) in PBS at 37 degrees for 15 minutes. Cells were washed with sterile PBS three times and then fixed with 4% PFA. Fluorescence images were taken using Bio-rad Zoeυ Fluorescent Cell Imager (Bio-Rad) and KEYENCE BZ-X800E Fluorescence Microscope (KEYENCE). Integrated fluorescent intensity was normalized by total cell counts, which is determined by DAPI staining.

Data set [2] relates to intracellular APOB, LAMP1, and SORTILIN
As to the kind of experiment: Confocal immunofluorescence of intracellular APOB, LAMP1 and SORTILIN
It counts as cell-based, human. The following applies: 48 μg/mL, 24 hours. As to the method:
Human iPSC-derived hepatocytes (iPSC-Heps) were treated with 48 μg/mL of DL-9 for 24 hours. Immunofluorescence of intracellular APOB, LAMP1, and SORTILIN was detected by specific antibodies. […] Extracellular APOB was measured by ELISA analysis. APOB level was normalized to DMSO treated group (FIG. 13C). In FIG. 13D intracellular APOB was determined via western blot using a specific anti-APOB antibody. […] Data are shown as mean±SD of triplicates (n=3). Statistical analysis was performed using the student t-test.
For hepatic marker expression analysis, human iPSC-derived hepatocytes (Day 20) were treated with 2 μg/mL of DL-1 for 24 hours. Cells were fixed in 4% paraformaldehyde (PFA) and penetrated with 0.1% Triton-X-100. Cells were incubated with primary antibodies (ALB, 1:1000, Dako; HNF4-a, 1:1000, Santa Cruz) overnight at 4 degrees and then switched to secondary antibodies (Alexa Flour 488 goat anti-rabbit, 1:1000, Invitrogen; Alexa Flour 594 rabbit anti-mouse, 1:2000, Invitrogen). Images were taken using Bio-Rad Zoe™ Fluorescent Cell Imager (Bio-Rad). For intracellular APOB localization, iPSC-heps were treated with 0, 3, 12, 48 μg/mL of DL-9 for 24 hours, and cells were fixed in 4% PFA followed by 0.1% Triton-X-100 penetration. […] Integrated fluorescent intensity was normalized by total cell counts, which is determined by DAPI staining.

As for `Sc1nc(S)nc(Nc2cc(Cl)cc(Cl)c2)n1` (racemic) [DL-5, 6-[(3,5-dichlorophenyl)amino]-1,3,5-triazine-2,4-dithiol], the “Solubility in 1.0 ml PBS buffer” value in data set [1] was found to be 61 µg. Moreover, the “Solubility in 1.0 ml water” value in data set [1] (water) was determined as 0.27 µg.

Take `CC(C)(C)c1cc(Nc2nc(S)nc(S)n2)cc(C(C)(C)C)c1OCCO` (racemic) [DL-27, 6-(3,5-di-tert-butyl-4-(2-hydroxyethoxy)-phenylamino)-1,3,5-triazine-2,4-dithiol]: in data set [1], the “Solubility in 1.0 ml PBS buffer” value was 257 µg and the solubility comparison entry is given as “better solubilities than that for DL-9”. Moreover, the “Solubility in 1.0 ml water” value in data set [1] (water) came out at 1.78 µg.

Turning to `Oc1c(Cl)cc(Nc2nc(S)nc(S)n2)cc1Cl` (racemic) [DL-28, 6-(3,5-dichloro-4-hydroxyphenylamino)-1,3,5-triazine-2,4-dithiol], in data set [1], the “Solubility in 1.0 ml PBS buffer” value turned out to be 348 µg and the solubility comparison result is given as “better solubilities than that for DL-9”. Moreover, in data set [1] (water), the “Solubility in 1.0 ml water” value amounted to 1.25 µg.

Turning to `Cc1cc(Nc2nc(S)nc(S)n2)cc(C)c1O` (racemic) [DL-29, 6-(3,5-dimethyl-4-hydroxyphenylamino)-1,3,5-triazine-2,4-dithiol], in data set [1], the “Solubility in 1.0 ml PBS buffer” value was found to be 686 µg and the solubility comparison entry is reported as “better solubilities than that for DL-9”. The “Solubility in 1.0 ml water” value in data set [1] (water) was determined as 2.22 µg.

Consider `CC(C)(C)c1cc(C(C)(C)C)c(Nc2nc(S)nc(S)n2)cc1O` (racemic) [DL-30, 6-(2,4-di-tert-butyl-5-hydroxyphenylamino)-1,3,5-triazine-2,4-dithiol], for which, in data set [1], the “Solubility in 1.0 ml PBS buffer” value was 459 µg and the solubility comparison result was “better solubilities than that for DL-9”. Also, the “Solubility in 1.0 ml water” value in data set [1] (water) amounted to 1.35 µg.

For `CC(C)(C)c1cc(Nc2nc(S)nc(S)n2)c(O)c(C(C)(C)C)c1` (racemic) [DL-31, 6-(3,5-di-tert-butyl-2-hydroxyphenylamino)-1,3,5-triazine-2,4-dithiol], in data set [1] (1 x PBS buffer), the “solubility relative to that of DL-9 in 1 x PBS buffer” value is ~5 fold. In data set [1], the “Solubility in 1.0 ml PBS buffer” value amounted to 477 µg and the solubility comparison result is given as “better solubilities than that for DL-9”. Also, in data set [1] (water), the “solubility relative to that of DL-9 in water” value is on record as “about 4 fold” and the “Solubility in 1.0 ml water” value was found to be 1.63 µg.

For the compound `COc1cc(Nc2nc(S)nc(S)n2)cc(OC)c1O` (racemic) [DL-32], in data set [1], the “Solubility in 1.0 ml PBS buffer” value is 786 µg and the solubility comparison entry is recorded as “better solubilities than that for DL-9”. The “Solubility in 1.0 ml water” value in data set [1] (water) stood at 2.01 µg.

As for `O=C(Nc1ccc2c(c1)CCN(Cc1ncn[nH]1)C2)c1ccccc1-c1ccc(C(F)(F)F)cc1` [CP-346086, reference compound], the “hepatic lipid accumulation (neutral lipid level)” value in the data set with Hepatic neutral lipid was “significant increase of neutral lipid level”.

Turning to `CC(C)(C)c1cc(Nc2nc(S)nc(S)n2)cc(C(C)(C)C)c1O` [DL-9, {4-[(3,5-di-tert-butyl-4-hydroxyphenyl)amino]-6-sulfanidyl-1,3,5-triazin-2-yl}sulfanide], the “colocalization of APOB and SORTILIN” value in data set [2] is “colocalization of APOB and SORTILIN”. Further, in data set [1], the “Solubility in 1.0 ml PBS buffer” value was 91 µg and the solubility comparison result is listed as “best solubility among the first three compounds”. Moreover, in data set [1] (water), the “Solubility in 1.0 ml water” value was 0.40 µg.

With `C#CCOCCOCCOCCOCCOc1c(C(C)(C)C)cc(Nc2nc(S)nc(S)n2)cc1C(C)(C)C` [DL-33, 6-(3,5-di-tert-butyl-4-(2-(2-(2-(2-(2-propyn-1-yloxy)ethoxy)ethyoxy)etoxy)ethoxy)-phenylamino)-1,3,5-triazine-2,4-dithiol], in data set [1], the “Solubility in 1.0 ml PBS buffer” value was 186 µg and the solubility comparison result is recorded as “better solubilities than that for DL-9”. Further, in data set [1] (water), the “Solubility in 1.0 ml water” value was determined as 1.18 µg.
